# Laboratory results: ChEMBL document CHEMBL2413072, “Synthesis and in vitro anticancer studies of novel C-2 arylidene congeners of lantadenes” (2013)
# How the values were obtained:
# Type in all cases: functional
# OVCAR-5 = assay: Growth inhibition of human OVCAR5 cells assessed as cell growth at 10^-7 M by sulforhodamine B assay; details: read-out: Activity
# HCT-15 = assay: Growth inhibition of human HCT15 cells assessed as cell growth at 10^-8 M by sulforhodamine B assay; details: read-out: Activity
# RXF 393 = assay: Growth inhibition of human RXF393 cells assessed as cell growth at 10^-7 M by sulforhodamine B assay; details: read-out: Activity
# KM12 = assay: Growth inhibition of human KM12 cells by sulforhodamine B assay
# BT-549 = assay: Growth inhibition of human BT549 cells assessed as cell growth at 10^-7 M by sulforhodamine B assay; details: read-out: Activity
# UACC-62 = assay: Growth inhibition of human UACC62 cells assessed as cell growth at 10^-6 M by sulforhodamine B assay; details: read-out: Activity
# SNB-75 = assay: Growth inhibition of human SNB75 cells assessed as cell growth at 10^-4 M by sulforhodamine B assay; details: read-out: Activity
# PC-3 = assay: Growth inhibition of human PC3 cells assessed as cell growth at 10^-8 M by sulforhodamine B assay; details: read-out: Activity
# MDA-MB-231 = assay: Growth inhibition of human MDA-MB-231 cells assessed as cell growth at 10^-6 M by sulforhodamine B assay; details: read-out: Activity
# COLO 205 = assay: Growth inhibition of human COLO205 cells by sulforhodamine B assay
# IGROV-1 [1] = assay: Growth inhibition of human IGROV1 cells assessed as cell growth at 10^-6 M by sulforhodamine B assay; details: read-out: Activity
# 786-0 = assay: Growth inhibition of human 786-0 cells assessed as cell growth at 10^-6 M by sulforhodamine B assay; details: read-out: Activity
# UO-31 = assay: Growth inhibition of human UO31 cells assessed as cell growth at 10^-4 M by sulforhodamine B assay; details: read-out: Activity
# TK-10 = assay: Growth inhibition of human TK10 cells assessed as cell growth at 10^-6 M by sulforhodamine B assay; details: read-out: Activity
# MOLT-4 = assay: Growth inhibition of human MOLT4 cells by sulforhodamine B assay
# NCI-H460 = assay: Growth inhibition of human NCI-H460 cells by sulforhodamine B assay
# [2] = Growth inhibition of human Hs 578T cells assessed as cell growth at 10^-4 M by sulforhodamine B assay; details: read-out: Activity
# RPMI-8226 = assay: Growth inhibition of human RPMI8226 cells assessed as cell growth at 10^-8 M by sulforhodamine B assay; details: read-out: Activity
# Malme-3M = assay: Growth inhibition of human MALME-3M cells assessed as cell growth at 10^-6 M by sulforhodamine B assay; details: read-out: Activity
# IGROV-1 [3] = assay: Growth inhibition of human IGROV1 cells assessed as cell growth at 10^-4 M by sulforhodamine B assay; details: read-out: Activity
# OVCAR-3 = assay: Growth inhibition of human OVCAR3 cells by sulforhodamine B assay
# [4] = read-out: LC50 (the source's name)
# [5] = read-out: pLC50 (the source's name) (converted)
structure (smiles),measurement,setting,value
CC(C)=CC(=O)O[C@@H]1CC(C)(C)C[C@H]2C3=CC[C@@H]4[C@@]5(C)CC[C@H](O)C(C)(C)[C@@H]5CC[C@@]4(C)[C@]3(C)CC[C@@]12C(=O)O [Reduced Lantadene B],growth at 0.1 µM,OVCAR-5,111%
same,growth at 0.01 µM,HCT-15,93%
same,growth at 0.1 µM,RXF 393,95%
same,GI50,KM12; read-out: GI50,862 nM
same,LC50 (50% net cell kill),KM12; read-out: LC50,> 100 µM
same,TGI,KM12; read-out: TGI,19.6 µM
same,GI50,KM12; read-out: pGI50 (converted),871 nM
same,LC50 (50% net cell kill),KM12; read-out: pLC50 (converted),> 100 µM
same,TGI,KM12; read-out: pTGI (converted),19.5 µM
same,growth at 0.1 µM,BT-549,98%
same,growth at 1 µM,UACC-62,82%
same,growth at 100 µM,SNB-75,-38%
same,growth at 0.01 µM,PC-3,97%
same,growth at 1 µM,MDA-MB-231,85%
same,GI50,COLO 205; read-out: GI50,3.66 µM
same,LC50,COLO 205; read-out: LC50,93.6 µM
same,TGI,COLO 205; read-out: TGI,14.3 µM
same,GI50,COLO 205; read-out: pGI50 (converted),3.63 µM
same,LC50,COLO 205; read-out: pLC50 (converted),93.3 µM
same,TGI,COLO 205; read-out: pTGI (converted),14.5 µM
same,growth at 1 µM,IGROV-1 [1],101%
same,growth at 1 µM,786-0,93%
same,growth at 100 µM,UO-31,-87%
same,growth at 1 µM,TK-10,86%
same,GI50,MOLT-4; read-out: GI50,3.02 µM
same,CC50,MOLT-4; [4],> 100 µM
same,TGI,MOLT-4; read-out: TGI,20.6 µM
same,GI50,MOLT-4; read-out: pGI50 (converted),3.02 µM
same,CC50,MOLT-4; [5],> 100 µM
same,TGI,MOLT-4; read-out: pTGI (converted),20.4 µM
same,GI50,NCI-H460; read-out: GI50,3.07 µM
same,LC50,NCI-H460; read-out: LC50,> 100 µM
same,TGI,NCI-H460; read-out: TGI,66.8 µM
same,GI50,NCI-H460; read-out: pGI50 (converted),3.09 µM
same,LC50,NCI-H460; read-out: pLC50 (converted),> 100 µM
same,TGI,NCI-H460; read-out: pTGI (converted),66.1 µM
same,growth at 100 µM,[2],-45%
same,growth at 0.01 µM,RPMI-8226,100%
same,growth at 1 µM,Malme-3M,104%
same,growth at 100 µM,IGROV-1 [3],-43%
same,GI50,OVCAR-3; read-out: GI50,7.04 µM
same,CC50,OVCAR-3; [4],54.7 µM
same,TGI,OVCAR-3; read-out: TGI,22.1 µM
same,GI50,OVCAR-3; read-out: pGI50 (converted),7.08 µM
same,CC50,OVCAR-3; [5],55 µM
same,TGI,OVCAR-3; read-out: pTGI (converted),21.9 µM
